Assay results from patent US20190071416A1, “COMPOUNDS FOR TREATMENT OF CANCER AND EPIGENETICS” (Agency For Science, Technology and Research, priority 2015, published 2019).

Molecular target: T1, SMYD3 (Homo sapiens, UniProt Q9H7B4)
T1 sequence (Q9H7B4 1-428): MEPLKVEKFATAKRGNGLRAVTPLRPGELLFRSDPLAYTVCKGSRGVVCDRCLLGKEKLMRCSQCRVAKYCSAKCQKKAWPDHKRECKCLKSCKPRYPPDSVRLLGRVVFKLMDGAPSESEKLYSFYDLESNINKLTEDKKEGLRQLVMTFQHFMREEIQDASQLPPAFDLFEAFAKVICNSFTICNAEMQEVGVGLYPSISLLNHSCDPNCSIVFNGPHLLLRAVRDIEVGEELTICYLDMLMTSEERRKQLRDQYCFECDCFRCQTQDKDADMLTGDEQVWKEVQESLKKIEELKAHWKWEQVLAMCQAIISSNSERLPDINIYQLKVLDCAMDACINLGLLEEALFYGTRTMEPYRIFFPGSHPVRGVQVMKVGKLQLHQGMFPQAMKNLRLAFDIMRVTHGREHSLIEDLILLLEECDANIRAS
Test: SMYD3 biochemical assay (MTase-Glo, MAP3K2 peptide substrate)
Settings: Table 3; MTase assay, MAP3K2 peptide substrate; read-out: IC50
Outline: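 Methylation of MAP3K2 peptide (10 µM final) with SAM (1.0 µM final) by SMYD3, 30 min at room temperature. SAH formed was enzymatically converted to ATP and detected as luminescence with MTase-Glo reagents; IC50 by non-linear regression.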

| SMILES | IC50 [µM] |
| --- | --- |
| CCCOC(=O)N1CCN(C(=O)c2ccc3c(Cl)cc(-c4ccc(F)c(OC)c4)nc3c2)C[C@H]1C [B088, Propyl (R)-4-(4-chloro-2-(4-fluoro-3-methoxyphenyl)quinoline-7-carbonyl)-2-methylpiperazine-1-carboxylate] | 0.014 |
| CCCOC(=O)N1CCN(C(=O)c2ccc3c(Cl)cc(-c4ccc(-n5ccnc5)cc4)nc3c2)C[C@H]1C [B089, Propyl (R)-4-(2-(4-(1H-imidazol-1-yl)phenyl)-4-chloroquinoline-7-carbonyl)-2-methylpiperazine-1-carboxylate] | 0.065 |
| CCCOC(=O)N1CCN(C(=O)c2ccc3c(Cl)cc(-c4ccnn4C)nc3c2)[C@@H](C)C1 [B091, Propyl (S)-4-(4-chloro-2-(1-methyl-1H-pyrazol-5-yl)quinoline-7-carbonyl)-3-methylpiperazine-1-carboxylate] | 7.5 |
| CCCOC(=O)N1CCN(C(=O)c2ccc3c(Cl)c(C)c(-c4ccc(CN)cc4)nc3c2)CC1 [B093, Propyl 4-(2-(4-(aminomethyl)phenyl)-4-chloro-3-methylquinoline-7-carbonyl)piperazine-1-carboxylate] | 0.042 |
| CCCOC(=O)N1CCN(C(=O)c2ccc3c(Cl)cc(-c4ccc(S(=O)(=O)N(C)C)cc4)nc3c2)C[C@H]1C [B094, Propyl (R)-4-(4-chloro-2-(4-(N,N-dimethylsulfamoyl)phenyl)quinoline-7-carbonyl)-2-methylpiperazine-1-carboxylate] | 0.61 |
| CCCOC(=O)N1CCN(C(=O)c2ccc3c(Cl)cc(-c4ccc(N5CCN(C)CC5)cc4)nc3c2)C[C@H]1C [B095, Propyl (R)-4-(4-chloro-2-(4-(4-methylpiperazin-1-yl)phenyl)quinoline-7-carbonyl)-2-methylpiperazine-1-carboxylate] | 0.056 |
| CCCOC(=O)N1CCN(C(=O)c2ccc3c(Cl)cc(-c4ccc(OC)c(CN)c4)nc3c2)CC1 [B097, Propyl 4-(2-(3-(aminomethyl)-4-methoxyphenyl)-4-chloroquinoline-7-carbonyl)piperazine-1-carboxylate] | 0.11 |
| CCCOC(=O)N1CCN(C(=O)c2ccc3c(Cl)cc(-c4ccc(CN(C)C)cc4)nc3c2)C[C@H]1C [B098, Propyl (R)-4-(4-chloro-2-(4-((dimethylamino)methyl)phenyl)quinoline-7-carbonyl)-2-methylpiperazine-1-carboxylate] | 0.13 |

The next lines start with the values.

| IC50 [µM] | SMILES |
| --- | --- |
| 0.93 | CCCOC(=O)N1CCN(C(=O)c2ccc3c(Cl)cc(-c4ccc(F)c(OC)c4)nc3c2)CC1 [B087, Propyl 4-(4-chloro-2-(4-fluoro-3-methoxyphenyl)quinoline-7-carbonyl)piperazine-1-carboxylate] |
| 0.077 | CCCOC(=O)N1CCN(C(=O)c2ccc3c(Cl)cc(-c4ccc(N5CCOCC5)cc4)nc3c2)C[C@H]1C [B090, Propyl (R)-4-(4-chloro-2-(4-morpholinophenyl)quinoline-7-carbonyl)-2-methylpiperazine-1-carboxylate] |
| 0.25 | CCCOC(=O)N1CCN(C(=O)c2ccc3c(Cl)c(C)c(-c4ccc(C(N)=O)cc4)nc3c2)CC1 [B092, Propyl 4-(2-(4-carbamoylphenyl)-4-chloro-3-methylquinoline-7-carbonyl)piperazine-1-carboxylate] |
| 0.31 | CCCOC(=O)N1CCN(C(=O)c2ccc3c(Cl)cc(-c4cccc(-n5cnnc5)c4)nc3c2)C[C@H]1C [B096, Propyl (R)-4-(2-(3-(4H-1,2,4-triazol-4-yl)phenyl)-4-chloroquinoline-7-carbonyl)-2-methylpiperazine-1-carboxylate] |
| 0.35 | CCCOC(=O)N1CCN(C(=O)c2ccc3c(Cl)cc(-c4ccc(OC)c(C)c4)nc3c2)CC1 [B099, Propyl 4-(4-chloro-2-(4-methoxy-3-methylphenyl)quinoline-7-carbonyl)piperazine-1-carboxylate] |
| 0.11 | CCCOC(=O)N1CCN(C(=O)c2ccc3c(Cl)cc(-c4ccc(OC)c(CO)c4)nc3c2)CC1 [B100, Propyl 4-(4-chloro-2-(3-(hydroxymethyl)-4-methoxyphenyl)quinoline-7-carbonyl)piperazine-1-carboxylate] |
